Measurements reported in patent US20060009415A1, “Corneal epithelial migration promoter” (priority 2000, published 2006).

System: corneal epithelial layer of rabbit cornea blocks
Test: Corneal epithelial migration in rabbit cornea tissue culture (method of Nishida et al.)
Format: cell-based, male Japanese white rabbits
Conditions: for Corneal Epithelial Migration Rate (%): 24 h, 37.5° C., 5% CO2, control set at 100%; for corneal epithelial migration promoting effect (in words): summary of Table 1, rabbit cornea tissue culture
Experimental: Using cornea specimen s collected from male Japanese white rabbits, the corneal epithelial migration length was used as an index in studying the cornea tissue culturing system according to the method of Nishida, et al. (J. Cell Biol., 97, 1653-1657 (1983)). Cornea blocks (6 specimens for each group) cut from rabbit cornea pieces were cultured in a culture solution (TCM-199) containing an invention compound at 37.5° C. and 5% CO2 for 24 h. After culturing, the cornea blocks were fixed in an ethanol/glacial acetic acid (95:5 by volume) mixture solution, followed by embedding with paraffin to form slices. After removal of the paraffin, the slices were subjected to hematoxylin-eosin staining, and the length of migration of the corneal epithelial layer was observed using a microscope. As a control, culturing was also performed using a culture solution not containing an invention compound.

[1] = compound 100 μM in culture solution (TCM-199)
[2] = compound 10 μM in culture solution (TCM-199)

O=c1ccn([C@@H]2O[C@H](COP(=O)([O-])OP(=O)([O-])OP(=O)([O-])O)[C@@H](O)[C@H]2O)c(=O)[nH]1.[Na+].[Na+].[Na+] [UTP-Na, uridine 5′-triphosphate trisodium]
Corneal Epithelial Migration Rate (%) [1]: 123.1%
corneal epithelial migration promoting effect (in words): significant corneal epithelial migration promoting effects

Nc1ncnc2c1ncn2[C@@H]1O[C@H](COP(=O)([O-])OP(=O)([O-])O)[C@@H](O)[C@H]1O.[Na+].[Na+] [ADP-Na, adenosine 5′-diphosphate disodium]
Corneal Epithelial Migration Rate (%) [2]: 116.1%
corneal epithelial migration promoting effect (in words): significant corneal epithelial migration promoting effects

O=c1ccn([C@@H]2O[C@H](COP(=O)([O-])OP(=O)([O-])OP(=O)([O-])OP(=O)([O-])OC[C@H]3O[C@@H](n4ccc(=O)[nH]c4=O)[C@H](O)[C@@H]3O)[C@@H](O)[C@H]2O)c(=O)[nH]1.[Na+].[Na+].[Na+].[Na+] [DUTP-Na, P^1, P^4-di(uridine-5′)tetraphosphate tetrasodium]
Corneal Epithelial Migration Rate (%) [1]: 118.9%
corneal epithelial migration promoting effect (in words): significant corneal epithelial migration promoting effects

O=c1ccn([C@@H]2O[C@H](COP(=O)([O-])OP(=O)([O-])O)[C@@H](O)[C@H]2O)c(=O)[nH]1.[Na+].[Na+] [UDP-Na, uridine 5′-diphosphate di-sodium]
Corneal Epithelial Migration Rate (%) [1]: 115.3%
corneal epithelial migration promoting effect (in words): significant corneal epithelial migration promoting effects

Nc1ncnc2c1ncn2[C@@H]1O[C@H](COP(=O)([O-])OP(=O)([O-])OP(=O)([O-])O)[C@@H](O)[C@H]1O.[Na+].[Na+].[Na+] [ATP-Na, adenosine 5′-triphosphate trisodium]
Corneal Epithelial Migration Rate (%) [2]: 119.3%
corneal epithelial migration promoting effect (in words): significant corneal epithelial migration promoting effects
